From patent publication US20160067187A1, “Methods for Treating or Preventing Migraines” (Validus Pharmaceuticals LLC, priority 2005, published 2016)

Key:
[1] = tested on: migraine patients; experiment: Study of preventing migraines (Example 5); type: in vivo, human
Text: (§1) This study is designed to evaluate the efficacy of isocarboxazid in preventing migraines and in the treatment of chronic tension-type headache.
(§2) A total of 61 patients suffering from chronic tension-type headache are recruited. […] While on this therapy, 35 of the 42 migraine patients and 16 of the 17 patients with tension-type headaches are experiencing good or very good improvement in their symptoms. […] In tension-type headaches, the effect may occur at the earliest 3-6 weeks and in the case of migraines at the earliest 6-8 weeks after the start of treatment. The therapeutic result is independent of any concurrent depression.

[2] = tested on: subjects with migraine headache; experiment: Open-label pilot study of safety, effectiveness and tolerability in the prophylactic treatment of migraine (Example 1); type: in vivo, human
Procedure: An open-label pilot study was performed to evaluate the safety, effectiveness and tolerability of the MAOI isocarboxyzid (Marplan®) in the prophylactic treatment of migraine.
Male and female subjects 18-60 years of age were recruited. […] The subject must have had approximately 3-12 migraine headaches per month for the 3 months prior to entering the screening period. Major exclusion criteria included a history of cluster headache, migraine with prolonged aura, and atypical forms of migraine. […] Concomitant use of tryptans, NSAID's, antidepressants and other commonly used ant-migraine agents was prohibited. The Headache Assessment Scale and other assessments were recorded at Baseline and Weeks 1, 4, 8, 12, 16 and 20. Primary safety and efficacy analysis were based on the intention-to-treat population. Safety data included laboratory data, adverse events, vital signs, and ECG's. The primary efficacy measure was within-subject change from baseline in migraine frequency.
Fourteen subjects had at least on post-baseline assessment, and seven subjects completed the full 20 weeks of treatment (Table 1a,b). […] Five subjects (31%) withdrew due to adverse events. […] The mean does for completers at the end of study was 38.6 mg (Table 2). […] At baseline, subjects reported an average migraine frequency of 5.2 +1.9 attacks/month. […] At week 20, a frequency of 0.4±0.7 (p<0.001) was observed. […] Because of the small number of subjects and relatively high dropout rate, an analysis of the data using a Last Observation Carried Forward (LOF) procedure was undertaken.

[3] = tested on: patients suffering from migraine with aura; experiment: Double blind, randomized, placebo-controlled study in migraine with aura (Example 2); type: in vivo, human; conditions: 10 mg to 40 mg per day, oral
Procedure: A double blind, multicenter, randomized, placebo-controlled study is performed to evaluate the efficacy of isocarboxazid in treating patients suffering from migraine with aura.
(§3) A total of 16 patients participate in the study in […]. The age of the recruited patients ranges between 18 years and 75 years. Both male and female patients are selected for the study. Recruitment period for the study is 5 months.
Isocarboxazid is prescribed as a prophylaxis to one group of patients. Also, isocarboxazid is prescribed after the expression of symptoms to another group of patients. […] Dose increments are based on the investigator's judgment of the patient's response. After 4 weeks of therapy on 20 mg per day, the doses may be increased to 30 mg per day, 10 mg in the AM and 20 mg in the PM. After 4 weeks of therapy on 30 mg per day, doses may be increased to 40 mg per day, 20 mg in the AM and 20 mg in the PM. After 4 weeks of 40 mg per day, the doses may be increased to 50 mg per day, 20 mg in the AM and 30 mg in the PM. After 4 weeks of 50 mg per day, the doses may be increased to 60 mg per day, 30 mg in the AM and 30 mg in the PM. The duration of the medication treatment is a total of 20 weeks. […]
(§4) In order to determine the efficacy of isocarboxazid, pain intensity is evaluated on an assessment scale and recoded in an assessment sheet. […]
(§5) The collected data are statistically analyzed.

[4] = human, in vivo, inhaled or intranasal, 10 mg
[5] = tested on: patients suffering from migraine without aura; experiment: Double blind, randomized, placebo-controlled study in migraine without aura (Example 3); type: in vivo, human; conditions: 10 mg to 40 mg per day, oral
Text: as §3
Isocarboxazid is prescribed as a prophylaxis to one group of patients. Also, isocarboxazid is prescribed after the expression of symptoms to another group of patients. […] Dose increments are based on the investigator's judgment of the patient's response. After 4 weeks of therapy on 20 mg per day, the doses may be increased to 30 mg per day, 10 mg in the AM and 20 mg in the PM. After 4 weeks of therapy on 30 mg per day, doses may be increased to 40 mg per day, 20 mg in the AM and 20 mg in the PM. After 4 weeks of 40 mg per day, the doses may be increased to 50 mg per day, 20 mg in the AM and 30 mg in the PM. After 4 weeks of 50 mg per day, the doses may be increased to 60 mg per day, 30 mg in the AM and 30 mg in the PM. The duration of the medication treatment is a total of 20 weeks.
Patients in the study are diagnosed for the symptoms of migraine without aura. Diagnosis is performed according to the criteria set forth by the International Headache Society. […]
as §4, §5

[6] = tested on: acute migraine headaches; experiment: Double blind, placebo-controlled single dose study in acute migraine headaches (Example 4); type: in vivo, human; conditions: 20 and 40 mg single doses; after 2 hrs and 24 hours
Procedure: A double blind, multicenter, randomized, placebo-controlled single dose study to evaluate the efficacy of isocarboxazid in the treatment of acute migraine headaches is conducted.
The study consists of a screening visit, at home treatment of a single migraine attack, and a follow up visit 1-5 days following treatment. In addition to safety evaluations, the patients are evaluated for efficacy based on superiority over the placebo at 2 hour and 24 hour periods
after dosing for a) pain relief; b) incidence of photophobia; c) incidence of phonophobia; and d) incidence of nausea.
The results are collected from 30 patients.

[7] = tested on: patients with tension-type headaches; experiment: Study of treatment of chronic tension-type headache (Example 5); type: in vivo, human
Text: as §1, §2

Question: Which “patients experiencing good or very good improvement in their symptoms” value ([1]; migraine patients, 10 to 60 mg daily dose, about 8 months on average) does the source give for `Cc1cc(C(=O)NNCc2ccccc2)no1` [isocarboxazid] here?
Answer: 35 of the 42

Question: What about the “earliest occurrence of the effect after the start of treatment” value ([1]; migraines) of the same molecule?
Answer: 6-8 weeks

Question: And the “Discontinued (Lack of efficacy), number of subjects (%)” value ([2]; 16 subjects at baseline visit, 20 weeks)?
Answer: 0 (0%)

Question: And the “Change from baseline (mean ± SD) in migraine frequency” value ([2]; LOCF, n 14, p-value 7.0 × 10^−6)?
Answer: 3.8 ± 2.8

Question: What about the “Change from baseline (mean ± SD) in migraine frequency” value ([2]; Observed cases, n 7, p-value 1.5 × 10^−7) of the same molecule?
Answer: 5.9 ± 1.5

Question: And the “reduction in migraine frequency during the course of treatment” value ([2]; all subjects)?
Answer: significant reduction

Question: What about the “Adverse Event: Anxiety, Number” value ([2]; both, human, in vivo, 20 weeks) of the same molecule?
Answer: 1

Question: What about the “Adverse Event: Fatigue, Number” value ([2]; both, human, in vivo, 20 weeks) of the same molecule?
Answer: 2

Question: What about the “Adverse Event: Insomnia, Number” value ([2]; both, human, in vivo, 20 weeks) of the same molecule?
Answer: 1

Question: And the “Adverse Event: Nosebleed, Number” value ([2]; both, human, in vivo, 20 weeks)?
Answer: 1

Question: And the “Discontinued (Adverse Experience), number of subjects (%)” value ([2]; both, human, in vivo, 20 weeks)?
Answer: 5 (31%)

Question: What about the “subjects who withdrew due to adverse events” value ([2]; both, human, in vivo, 20 weeks) of the same molecule?
Answer: 31%

Question: And the “reduction in migraine frequency (clinically significant response) reached by all completers” value ([2]; by week 16, all subjects completing the study, FIG. 3)?
Answer: ≥ 50%

Question: What about the “maximum dose tolerated by most subjects” value ([2]; most subjects, FIG. 1, titrated from 20 mg per day up to 60 mg per day) of the same molecule?
Answer: 20 to 40 mg/day

Question: And the “reductions in migraine frequency by week 8” value ([2]; week 8, FIG. 2)?
Answer: significant reductions

Question: And the “migraine frequency at week 20” value ([2]; week 20, baseline 5.2 +1.9 attacks/month, p<0.001)?
Answer: 0.4±0.7 attacks/month

Question: And the “effect versus placebo in treating and preventing migraine with aura” value [3]?
Answer: superior effect over the placebo

Question: What about the “share of the maximum plasma concentration (Cmax) reached at 30 minutes after administration” value [4] of the same molecule?
Answer: 60%

Question: And the “effect versus placebo in treating and preventing migraine without aura” value [5]?
Answer: superior effect over the placebo

Question: And the “effect versus placebo in treating acute headaches” value [6]?
Answer: superior effect over a placebo

Question: And the “earliest occurrence of the effect after the start of treatment” value [7]?
Answer: 3-6 weeks

Question: And the “patients experiencing good or very good improvement in their symptoms” value ([7]; 10 to 60 mg daily dose, about 8 months on average)?
Answer: 16 of the 17
